Assay: gradient 5% acetonitrile 3 min, to 50% in 2 min, to 85% in 15 min, held 3 min, 100 µL/min
Conditions: column: Zorbax Extend-C18 2.1 x 50 mm; eluents: water / acetonitrile, 0.1% formic acid
Procedure, shortened: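 Pure standards were analyzed in mixtures of ~100 molecules using HPLC coupled to a quadrupole time-of-flight mass spectrometer, in both positive and negative ionization mode. Separation used a Zorbax Extend-C18 column (2.1 × 50 mm, 1.8 μm) at 100 μL/min, with water and acetonitrile each containing 0.1% formic acid. Dead and dwell volumes were 40 μL and 900 μL, and data were collected over 3 months. Retention time was read from computationally picked adduct peaks, each inspected manually.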

Row | Structure (SMILES) | RP-LC retention time [s]
1 | COc1ccccc1OCC1c2ccsc2CCN1C(=O)CN(C(C)=O)C(C)C (centres undefined) | 773
2 | Cc1ccc(CNC(=O)CC2CCN(C(=O)c3[nH]c(C)cc3C)CC2)cc1 | 797
3 | CCC(=O)Nc1ccc(C2(C(=O)NCC3CC3)CCCCC2)cc1 | 825
4 | CC(C)c1ccc(NC(=O)C2CCN(S(=O)(=O)c3ccc4[nH]c(=O)sc4c3)CC2)cc1 | 913
5 | CC(C)n1cc(S(=O)(=O)Nc2ccc(C#N)cc2)c2cccnc21 | 833
6 | O=C(Nc1cccc(OCc2nnc(-c3ccc(Cl)cc3)o2)c1)c1cccnc1 | 811
7 | COc1cccc(-c2cc(CNC(=O)c3sc(-n4cccc4)nc3C)no2)c1 | 934
8 | O=C(c1cc(-c2cccnc2)n[nH]1)N1CCCC(C(=O)N2CCN(C(=O)c3ccco3)CC2)C1 (centres undefined) | 556
9 | CCn1cc(-c2nc(C)c(C(=O)NCc3ccc(F)cc3)s2)c2cccnc21 | 902
10 | COc1ccc(-c2nc(-c3cn(-c4ccc(C)cc4)nn3)no2)c(OC)c1 | 1050
11 | CCN(CC)CCNC(=O)Cn1ncc2c3ccccc3n(C)c2c1=O | 697
12 | Cc1ccnc(NC(=O)C2CCN(S(=O)(=O)c3cc(-c4noc(C5CC5)n4)ccc3C)CC2)c1 | 811
13 | CCCNC(=O)c1cc2c(-c3cccs3)nn(-c3ccccc3)c2n1C | 953
14 | O=C(Cc1csc(NC(=O)c2cnccn2)n1)Nc1cccc(C(F)(F)F)c1 | 777
15 | CSc1ccc(NC(=O)N2CCc3nc[nH]c3C2)cc1 | 590
16 | CCN1C(=O)Cc2ccccc2C1C(=O)NCc1cccc(F)c1 (centres undefined) | 744
17 | O=C(NCCCN1CCCC1)C1CCCN(c2ncc(-c3ccc(F)cc3)cn2)C1 (centres undefined) | 674
18 | Brc1cccc(-c2noc(-c3nc(-c4ccncc4)no3)n2)c1 | 1150
19 | CCN1C(=O)c2cc(C(=O)NCc3cccc(C)c3)nn2CC1(C)C(=O)NC1CCCC1 (centres undefined) | 812
20 | COc1ccc(N2CCN(Cc3nc(-c4ccc(N5CCOCC5)nc4)no3)CC2)cc1 | 688
21 | CCOC(=O)c1ccc(Nc2c(-c3cccc(Br)c3)nc3cnccn23)cc1 | 986
22 | Cc1ccc(Nc2ncccc2S(N)(=O)=O)cc1F | 863
23 | O=S(=O)(NCc1ccc(F)cc1Cl)c1c[nH]c2ncccc12 | 748

Row | Structure (SMILES) | RP-LC retention time [s]
24 | Cc1cc(C(=O)NCC(C)C)n[nH]1 | 629
25 | NC(=O)c1ccccc1NC(=O)Cc1cn(Cc2ccccc2)c2ccccc12 | 853
26 | COc1ccc(Cl)cc1-n1c(SCC(=O)N2CCC(C(N)=O)CC2)nc2ccccc2c1=O | 717
27 | Cc1ccc(S(=O)(=O)N2CCc3nc(-c4ccccc4)ncc3C2)cc1Cl | 1240
28 | CCCn1cc(C(=O)Nc2ccccc2CC)c2cccnc21 | 919
29 | CN(C1CCc2nn(CC3CC3)c(=O)n2CC1)S(=O)(=O)Cc1ccccc1 (centres undefined) | 747
30 | O=C(NCc1ccccc1)c1cn(Cc2ccc(NC(=O)C3CCCCC3)cc2)cn1 | 749
31 | CCc1ccccc1NC(=O)C1CCN(S(=O)(=O)c2ccc3c(c2)NC(=O)C(C)O3)CC1 (centres undefined) | 838
32 | CC1=C(c2ccc(F)cc2)S(=O)(=O)N=C1N1CCCN(C(=O)CCC(C)C)CC1 | 879
33 | CC(C)CCN1CCC(N2CCN(S(=O)(=O)c3ccccc3Cl)CC2)C1=O (centres undefined) | 668
34 | O=C(COCc1nnc(C(=O)Nc2cccc(F)c2)s1)NCCc1c[nH]c2ccccc12 | 893
35 | Cc1ccc(N2CC(c3nc(-c4ccc5c(c4)ncn5CCC(=O)N4CCCC4)no3)CC2=O)cc1C (centres undefined) | 738
36 | COc1ccc2nc(C)cc(NCCCCCCCCCNc3cc(C)nc4ccc(OC)cc34)c2c1 | 670
37 | Cc1ccccc1Nc1c(-c2ccc(Cl)cc2)nc2ncccn12 | 908
38 | O=C(NCc1ccccc1Cl)c1ccc2c(cnn2CC(=O)N2CCCCCC2)c1 | 830
39 | Cc1ccc2c(Nc3ccc(F)c(F)c3)c(C(=O)N3CCCC3)cnc2n1 | 680
40 | Cc1ccc(-c2nnc(-c3nc(N4CCCCC4C)c4ccccc4n3)o2)cc1 (centres undefined) | 1260
41 | COCCNC(=O)CN1c2ccccc2NC2=C(C(=O)CC(C)(C)C2)C1c1cccs1 (centres undefined) | 727
42 | CCc1cccc(NC(=O)Cn2c(=O)nc(N3CCC(C)CC3)c3ccccc32)c1 | 898
43 | CC(C)NC(=O)CSC1CCc2ccccc2NC1=O (centres undefined) | 661
44 | CCCc1cc(C2CCCN2C(=O)Nc2cc(C)ccc2OC)no1 (centres undefined) | 1020
45 | COc1ccc(NC(=O)N2CCCC2c2nc(-c3ccccc3OC)no2)cc1F (centres undefined) | 834
46 | CC(=O)Nc1cccc(N2CC(C(=O)Nc3ccc(Cl)c(C(F)(F)F)c3)CC2=O)c1 (centres undefined) | 807

Row | Structure (SMILES) | RP-LC retention time [s]
47 | Cc1ccc(-c2noc(-c3ccc(=O)n(CCC(C)C)n3)n2)cc1 | 1280
48 | O=C(CN1C(=O)CSc2ccc(C(=O)N3CCCC3)cc21)NC1CCCCCCC1 | 760
49 | O=[N+]([O-])c1ccc(CSc2ccc(-c3ccccn3)nn2)cc1 | 893
50 | Cc1ccc(-c2nnc(Cc3nc(-c4cccc(C(F)(F)F)c4)no3)o2)cc1C | 1220
51 | CCc1noc(NC(C)=O)c1-c1ccc(C)c(S(=O)(=O)NCCC(C)C)c1 | 856
52 | CN(C)S(=O)(=O)N(CC(=O)Nc1ccc(F)c(Cl)c1)c1ccccc1 | 986
53 | Cc1ccc(C)c(NC(=O)N2CCCC(Cn3cnc4cccnc43)C2)c1 (centres undefined) | 676
54 | CCOc1ccc(NC(=O)c2cnc3c(c2)c(=O)n(C)c(=O)n3-c2ccccc2)cc1 | 904
55 | Cc1nc2ncnn2c(C)c1CCC(=O)N1CCC(Cc2ccccc2)CC1 | 815
56 | COc1ccc(NC(=O)Cn2ccnc2-c2ccnc(N3CCOCC3)c2)cc1OC | 578
57 | CCn1cc(C)c(C(=O)O)c1CC(=O)Nc1cc(Cl)c(OC)cc1OC | 901
58 | O=C(c1cc(F)ccc1F)N1CCN(c2cc(-c3ccc(Cl)cc3)[nH]n2)CC1 | 847
59 | Cc1cccc(Nc2nc(-c3ccc([N+](=O)[O-])cc3)cs2)c1 | 1190
60 | CCCNC(=O)CCc1c(C)c(C(=O)OCC)c(C)n1C | 779
61 | O=C(c1ccnc(-c2cccs2)c1)N1CCN(c2ncccn2)CC1 | 749
62 | CCc1ccc(N2CC(c3noc(-c4ccc(-c5ccccc5)cc4)n3)CC2=O)cc1 (centres undefined) | 1340
63 | COc1ccc(NC(=O)CN2C(=O)NC3(CCC(C)CC3)C2=O)cc1OC (centres undefined) | 720
64 | O=S(=O)(c1ccc2c(c1)CCCC2)N1CCCC1c1nc(-c2ccccc2)no1 (centres undefined) | 1270
65 | CCn1cnnc1C1CCCCN1C(=O)Cc1c[nH]c2ccccc12 (centres undefined) | 649
66 | O=C(NC1CCCCCCC1)C1CCCN(C(=O)Cc2cccc3ccccc23)C1 (centres undefined) | 1060
67 | CCOc1ccc(NS(=O)(=O)c2c(C)sc(C)c2-c2n[nH]c(C)c2C)cc1 | 1040
68 | Cc1nc2cc(-c3noc(-c4ccc(C(F)(F)F)cc4)n3)ccc2n(C)c1=O | 1180
69 | Cc1c(Cc2ccccc2)sc(NC(=O)C2CCCCC2C(=O)O)c1C(N)=O (centres undefined) | 769

Row | Structure (SMILES) | RP-LC retention time [s]
70 | Cc1cc(N2CCN(C(=O)Nc3ccc(Cl)cc3)CC2)nc(N2CCOCC2)n1 | 655
71 | NC(=O)c1cc(C(N)=O)nc(Cl)n1 | 604
72 | O=C(Nc1nc(-c2cccnc2)cs1)c1csc(-n2cccc2)n1 | 667
73 | NCCC1CCN(C(=O)Nc2cc(F)ccc2F)CC1 | 588
74 | CCCn1nc(CNC(=O)c2sc(C)nc2C)c2ccccc21 | 776
75 | Cc1nnc(-c2ccc3ccn(CC(=O)NC4CCCC4)c3c2)o1 | 740
76 | COc1cccc(-c2noc(C3CC(=O)N(c4ccc(Cl)cc4)C3)n2)c1OC (centres undefined) | 963
77 | Cc1ccccc1CNC(=O)c1nnc(-c2ccc(S(=O)(=O)N(C)C)cc2)o1 | 874
78 | CC(NC(=O)Cc1cccc(F)c1)C(=O)Nc1nc2ccccc2[nH]1 (centres undefined) | 640
79 | CC(C)Cn1ccc2c(cc(C(=O)Nc3cc(F)ccc3F)n2C)c1=O | 876
80 | CC1(C)COc2ccc(NC(=O)COc3ccccc3F)cc2NC1=O | 825
81 | CC1Oc2ccc(-c3csc(NC(=O)c4cccc(F)c4)n3)cc2N(C)C1=O (centres undefined) | 943
82 | CN1C(=O)c2cc(C(=O)N3CCC(C(N)=O)CC3)nn2CC1(C)C(=O)NC1CCCC1 (centres undefined) | 888
83 | O=C(NC1CC1)C1CCN(c2nc3ccc(-c4cccnc4)nc3s2)CC1 | 598
84 | CCn1ccc2cc(S(=O)(=O)N3CCC(C(=O)NCCCN4CCCCC4C)CC3)ccc21 (centres undefined) | 665
85 | Cc1ccc(Oc2nccnc2N2CCCC(C(=O)NC(C)c3ccc(C)cc3C)C2)cc1 (centres undefined) | 1160
86 | O=c1n(Cc2cccc(Cl)c2)nc2c(S(=O)(=O)N3CCCC3)cccn12 | 882
87 | Cc1ccc(C)c(NC(=O)N2CCc3nc(-c4ccc(F)cc4)ncc3C2)c1 | 987
88 | CCC(C(=O)NCCc1c(C)nn(CC)c1C)n1c2ccccc2c2cnn(C)c(=O)c21 (centres undefined) | 698
89 | CC(C)CNC(=O)C1Cn2cccc2C(=O)N1C (centres undefined) | 624
